In general, IC50 refers to the concentration needed to halve the response being measured. High values mean weaker potency, low ones greater potency.

Bounds are passed on as bounds.

The record followed here is patent US11253499B2, “Compounds” (priority 2017, dated 2022).

The subject of test [1] is M. tuberculosis H37Rv-GFP. It is filed as cell-based, Mycobacterium tuberculosis. As to conditions: read-out: EC50_H37Rv.
Test [2] deals with Mycobacterium tuberculosis H37Rv in human macrophages THP-1.
Procedure: Mycobacterium tuberculosis In Vitro H37Rv in Human Macrophaqes THP-1 Inhibition Assay (Intracellular Assay)
Procedure was carried out as described in Sorrentino, F. et al. (2016) Antimicrob. Agents Chemother. 60 (1), 640-645 (supplemental material), except that before THP-1 infected cells were seeded in 384 well plates, infected macrophages were filtered in the last step of wash steps with a 40 um cell strainer to remove cell clumps and obtain single cell suspension.
The compounds of the examples were tested essentially in accordance with the above-mentioned assay (without the presence of ethionamide).

For `COC1(c2ccc(F)cc2)CN(C(=O)CCC(F)(F)F)C1` [Example 41, 4,4,4-trifluoro-1-(3-(4-fluorophenyl)-3-methoxyazetidin-1-yl)butan-1-one], the EC50 in test [1] is < 50 nM. In test [2], the IC50 was < 50 nM.

`CC1(c2ccc(F)cc2)CN(C(=O)CCC(F)(F)F)C1` [Example 42, 4,4,4-trifluoro-1-(3-(4-fluorophenyl)-3-methylazetidin-1-yl)butan-1-one]: in test [1], the EC50 is < 50 nM. The IC50 in test [2] is < 50 nM.
